# Data taken from the OligoGym collection.
# Where “and” joins values, the source holds several entries; their conditions need not be identical. Equal entries are not always repeated. After the bases stand the sugars from the 5' end (letter, count) and the backbone: PS all phosphorothioate, else s phosphorothioate and o phosphodiester by linkage. Methylation of C is not given here. e = 2'-O-(2-methoxyethyl) (MOE); k = constrained ethyl (cEt); d = 2'-deoxy (DNA)
# Biological target: IRF4
# Settings: ASO
sequence,measurement,setting,value
"GCCTAGCATGGATCCT (sugars k3 d10 k3, PS)",target mRNA inhibition,"MM.1R, 1 µM",-4%
"AAGCATTTTATCATCC (sugars kddddddddddkekek, PS)",target mRNA inhibition,"MM.1R, 1 µM",14%
"CTAGTCGCGCAAGTCT (sugars k3 d10 k3, PS)",target mRNA inhibition,"MM.1R, 1 µM",-4%
"TTGAAAGATTCAGCCT (sugars k3 d10 k3, PS)",target mRNA inhibition,"SK-MEL-28, 4 µM",3%
"GCCTGAGTTACCGCAT (sugars k3 d10 k3, PS)",target mRNA inhibition,"MM.1R, 0.0625 µM",-1%
same,target mRNA inhibition,"MM.1R, 0.074 µM",-3%
same,target mRNA inhibition,"MM.1R, 0.222 µM",-5%
same,target mRNA inhibition,"MM.1R, 0.25 µM",0%
same,target mRNA inhibition,"MM.1R, 0.666 µM",-9%
same,target mRNA inhibition,"MM.1R, 1 µM",13%
same,target mRNA inhibition,"MM.1R, 2 µM",5%
same,target mRNA inhibition,"MM.1R, 4 µM",41%
same,target mRNA inhibition,"SK-MEL-28, 4 µM",70%
"AGCTGCGGAGCCTGGG (sugars k3 d10 k3, PS)",target mRNA inhibition,"MM.1R, 1 µM",31%
"GTCTACAGAACACAAG (sugars k3 d10 k3, PS)",target mRNA inhibition,"SK-MEL-28, 4 µM",24%
"CCACACCAGGAAACCG (sugars k3 d10 k3, PS)",target mRNA inhibition,"SK-MEL-28, 4 µM",14%
"ATCAGAATGGCGAGTT (sugars k3 d10 k3, PS)",target mRNA inhibition,"SK-MEL-28, 4 µM",47%
"GTATGTAGCAATGTGA (sugars k3 d10 k3, PS)",target mRNA inhibition,"SK-MEL-28, 4 µM",21%
"AGCAGTGATGTCAGGT (sugars kddddddddddkekek, PS)",target mRNA inhibition,"MM.1R, 0.0625 µM",37%
same,target mRNA inhibition,"MM.1R, 0.25 µM",50%
same,target mRNA inhibition,"MM.1R, 1 µM",77% and 67% and 68%
same,target mRNA inhibition,"MM.1R, 4 µM",84%
"GAGTCACCTGGAATCT (sugars k4 d8 k4, PS)",target mRNA inhibition,"SK-MEL-28, 4 µM",6%
"TGCCAGTTCCTTGTGA (sugars k3 d10 k3, PS)",target mRNA inhibition,"MM.1R, 1 µM",-2%
"TTAGCCAATTCCTCCA (sugars k3 d10 k3, PS)",target mRNA inhibition,"MM.1R, 1 µM",36% and 47%
"AAGTGTCTAAAGTCCC (sugars kkdddddddddekeke, PS)",target mRNA inhibition,"MM.1R, 1 µM",13% and -1%
"CCTAGAGGTGCCTTCT (sugars k3 d10 k3, PS)",target mRNA inhibition,"SK-MEL-28, 4 µM",41%
"AGTGATGTCAGGTTTT (sugars kddddddddddkekek, PS)",target mRNA inhibition,"MM.1R, 1 µM",25%
"TTGCATCCATGTCAAC (sugars k3 d10 k3, PS)",target mRNA inhibition,"SK-MEL-28, 4 µM",47%
"CATCAATCATGATATT (sugars k3 d10 k3, PS)",target mRNA inhibition,"SK-MEL-28, 4 µM",25%
"CGGACGAACGCGCAAA (sugars k3 d10 k3, PS)",target mRNA inhibition,"SK-MEL-28, 4 µM",39%
"ATAGAGCCAGAGCAGT (sugars k3 d10 k3, PS)",target mRNA inhibition,"SK-MEL-28, 4 µM",66%
"GCAGAACGAGGTAAAT (sugars k3 d10 k3, PS)",target mRNA inhibition,"SK-MEL-28, 4 µM",62%
"GCGAAGAATTTTAGCA (sugars k3 d10 k3, PS)",target mRNA inhibition,"SK-MEL-28, 4 µM",12%
"AATGACTTAGTCAGAA (sugars k3 d10 k3, PS)",target mRNA inhibition,"SK-MEL-28, 4 µM",27%
"CACGGACGAACGCGCA (sugars k3 d10 k3, PS)",target mRNA inhibition,"SK-MEL-28, 4 µM",-2%
"TTGCTCTTGTTCAAAG (sugars k3 d10 k3, PS)",target mRNA inhibition,"SK-MEL-28, 4 µM",29%
"ACCAAGCTGGGTTTGC (sugars k3 d10 k3, PS)",target mRNA inhibition,"SK-MEL-28, 4 µM",53%
"ATTGAGGCATACAGTG (sugars k3 d10 k3, PS)",target mRNA inhibition,"SK-MEL-28, 4 µM",30%
"TGTGAACCTGCTAAAG (sugars k3 d10 k3, PS)",target mRNA inhibition,"MM.1R, 1 µM",-10%
"ACTGAGATATCCTGCA (sugars k3 d10 k3, PS)",target mRNA inhibition,"SK-MEL-28, 4 µM",19%
"GCAACACGGGAATTTC (sugars k3 d10 k3, PS)",target mRNA inhibition,"SK-MEL-28, 4 µM",66% and 74%
"GCATTATCTACCTCAG (sugars k3 d10 k3, PS)",target mRNA inhibition,"SK-MEL-28, 4 µM",69%
"GGAAGTTTACACTGGA (sugars kkkddddddddkekek, PS)",target mRNA inhibition,"MM.1R, 1 µM",43%
"TTAGACTGACAGCCGA (sugars k3 d10 k3, PS)",target mRNA inhibition,"SK-MEL-28, 4 µM",53%
"TCAGTTTGTGAAGCAT (sugars kddddddddddkekek, PS)",target mRNA inhibition,"MM.1R, 1 µM",21%
"GCTCATGCCGAACTCT (sugars k4 d8 k4, PS)",target mRNA inhibition,"SK-MEL-28, 4 µM",30%
"GGCCCTGTCAAACTAT (sugars k3 d10 k3, PS)",target mRNA inhibition,"SK-MEL-28, 4 µM",40%
"GAGTAAACTTGGCTGT (sugars k3 d10 k3, PS)",target mRNA inhibition,"SK-MEL-28, 4 µM",38%
"GGCACATGAGAAATCA (sugars k3 d10 k3, PS)",target mRNA inhibition,"SK-MEL-28, 4 µM",33%
"CATTCACACTGCCGTG (sugars k3 d10 k3, PS)",target mRNA inhibition,"MM.1R, 1 µM",6%
"AATGCACCTGGGAGAC (sugars k3 d10 k3, PS)",target mRNA inhibition,"SK-MEL-28, 4 µM",62%
"AAGCATAAAAGGTTCC (sugars k3 d10 k3, PS)",target mRNA inhibition,"SK-MEL-28, 4 µM",28%
"CTGTACACTTTGTACG (sugars k3 d10 k3, PS)",target mRNA inhibition,"SK-MEL-28, 4 µM",34%
"TTCCAGCAAGACCTAA (sugars k3 d10 k3, PS)",target mRNA inhibition,"SK-MEL-28, 4 µM",27%
"CTCCACTACCATATTG (sugars k3 d10 k3, PS)",target mRNA inhibition,"SK-MEL-28, 4 µM",1%
"ACTGTTACCGATGCTT (sugars k2 d9 e3 k2, PS)",target mRNA inhibition,"MM.1R, 1 µM",27% and 34%
"CAAGACAAATCTTCTG (sugars k3 d10 k3, PS)",target mRNA inhibition,"SK-MEL-28, 4 µM",13%
"TGAGAAAGCATGGCTC (sugars k3 d10 k3, PS)",target mRNA inhibition,"SK-MEL-28, 4 µM",40%
"GTCCAGCTGGCTCCGC (sugars k3 d10 k3, PS)",target mRNA inhibition,"SK-MEL-28, 4 µM",53%
"CCAAGAGGTGCGAGTA (sugars k3 d10 k3, PS)",target mRNA inhibition,"SK-MEL-28, 4 µM",33%
